From publication PMC9334755 (Cancer Biology & Medicine, 2021)
Read-outs that look alike come from different tables or passages of the source.

Legend:
BMX = BMX (Homo sapiens, UniProt P51813); test: HTRF kinase assay, BMX
Protocol: (§4) Homogeneous time-resolved fluorescence (HTRF) assays were performed with a HTRF® KinEASE™-TK kit (Trevigen).

FGFR3 = FGFR3 (Homo sapiens, UniProt P22607); test: Protein kinase panel at 1 µM, FGFR3; type: biochemical
BTK [1] = biological target: BTK (Homo sapiens, UniProt Q06187); test: Recovery of BTK activity after dilution (HTRF); type: biochemical; details: BTK incubated with inhibitor for 2 h, mixture diluted
Protocol: In addition, after incubation of BTK with the inhibitors for 4 h, we performed liquid chromatography-tandem mass spectrometry (LC-MS/MS) to detect the abundance of the inhibitors.
(A) The compounds were incubated with BTK for 2 h, after which HTRF assays were performed with dilution of the mixture. The reactions were stopped at different time points. Data are shown as the mean ± SEM. (B) The content of the compounds was measured with LC-MS/MS after incubation with BTK for 4 h. Data are shown as the mean ± SEM (n = 3). Statistical analysis was performed with Student’s t-test (***P < 0.001). […] Cells were lysed and analyzed by Western blot and fluorescent gel scanning.

PTK6 = PTK6 (Homo sapiens, UniProt Q13882); test: Protein kinase panel at 1 µM, PTK6; type: biochemical
[2] = human
LCK = LCK (Homo sapiens, UniProt P06239); test: Protein kinase panel at 1 µM, LCK; type: biochemical
EPHA3 = EPHA3 (Homo sapiens, UniProt P29320); test: Protein kinase panel at 1 µM, EPHA3; type: biochemical
Caco-2 = details: human
Description: protein kinases Beagle dog PK
Kinase Inhibition (%) Kinase Inhibition (%) IV Oral
Species Plasma protein binding (%)
Tcells, and B-cell lymphoma
Compound Caco-2 permeability assay
(1 picture or pasted object on this page, not shown here)

CSK = CSK (Homo sapiens, UniProt P41240); test: Protein kinase panel at 1 µM, CSK; type: biochemical
TMD8 xenografts = test: TMD8 tumor xenograft in SCID mice; type: in vivo
Protocol: TMD8 cells (1.0 × 10^7 cells in 100 µL of serum-free medium containing 40% Matrigel) were injected subcutaneously into SCID mice (6–8 weeks of age), and the tumor volume was monitored twice per week. […] The compounds were formulated in 0.5% methylcellulose containing 0.1% sodium lauryl sulfate. Tumor size and body weight were measured twice per week. All experiments were approved by the institutional animal care and use committee of Shouyao Holdings and were performed in accordance with the guidelines in the U.S. National Institutes of Health Guide for the Care and Use of Laboratory Animals (Approval No. CTA-2015063).
Figure 5 SY-1530 inhibits B-cell malignancy in vivo. (A–D) TMD8 cells were injected subcutaneously into SCID mice (6–8 weeks of age; 8 mice per group). […] Tumor size (A) and body weight (B) were measured […]. On the last day, mice were sacrificed 2.5 h after administration. LC-MS/MS was performed to measure the concentration of SY-1530 in plasma (C), and tumor samples were collected and analyzed with Western blot (D). QD represents administration once daily. Data are shown as mean ± SEM. Statistical analysis was performed with two-way analysis of variance (*P < 0.05; **P < 0.01; ***P < 0.001). […] Tumor size (E), body weight (F), SY-1530 concentration in the plasma (G), and protein expression in tumors (H) were measured. Data are shown as mean ± SEM. Statistical analysis was performed with two-way analysis of variance (*P < 0.05; **P < 0.01; ***P < 0.001).

Rat = details: in vivo
Description: (§1) Table S9 Preclinical safety of SY-1530
(§2) Group Single-dose toxicity Multiple-dose toxicity
(§3) Animal Rat Beagle dog Rat Beagle dog

Beagle dog = details: in vivo
Description: as §1, §2, §3

ITK = ITK (Homo sapiens, UniProt Q08881); test: HTRF assay of ITK activity
Protocol: as §4

BTK [3] = biological target: T1, BTK (Mus musculus, UniProt P35991); test: In vivo occupancy of BTK in mouse splenocytes; details: BALB/c mice, oral 50 mg/kg, 12 h after administration
T1 construct: from tissue; host or cells: splenocytes from spleens of normal BALB/c mice
Protocol: Cells were treated as indicated before the addition of a fluorescent probe (FL-SY-1530). After incubation, cells were collected and lysed for 5 min in cell lysis buffer. For analysis of the in vivo occupancy of BTK inhibitors, normal BALB/c mice (6–8 weeks old) were orally administered BTK inhibitors, […] seeded on 12-well plates and incubated with the fluorescent probe for 1 h. Then the samples were subjected to SDS-PAGE, and the gels were scanned with a Typhoon imaging system (excitation at 532 nm and emission at 555 nm). After scanning, the gels were detected with Western blot.
Figure 3 SY-1530 binds BTK in a dose-dependent and time-dependent manner. (A) The content of SY-1530 was measured with LC-MS/MS after incubation with BTK for the indicated time periods. Data are shown as the mean ± SEM. (B) SY-1530 was incubated with different concentrations of BTK, and LC-MS/MS was then performed to detect SY-1530 content. Data are shown as the mean ± SEM of 3 independent experiments. Statistical analysis was performed with Student’s t-test (**P < 0.01, ***P < 0.001). […] Cells were lysed and then analyzed by Western blot and fluorescent gel scanning. […] The concentration of SY-1530 in the plasma was measured with LC-MS/MS. […] Cells were lysed and analyzed by Western blot and fluorescent gel scanning. The concentration of SY-1530 in the plasma was measured with LC-MS/MS.

HER2 = HER2 (Homo sapiens, UniProt P04626); test: HTRF kinase assay, HER2
Protocol: as §4

[4] = IC50 SY-1530 over IC50 ibrutinib

Chain of BMX (P51813 whole entry): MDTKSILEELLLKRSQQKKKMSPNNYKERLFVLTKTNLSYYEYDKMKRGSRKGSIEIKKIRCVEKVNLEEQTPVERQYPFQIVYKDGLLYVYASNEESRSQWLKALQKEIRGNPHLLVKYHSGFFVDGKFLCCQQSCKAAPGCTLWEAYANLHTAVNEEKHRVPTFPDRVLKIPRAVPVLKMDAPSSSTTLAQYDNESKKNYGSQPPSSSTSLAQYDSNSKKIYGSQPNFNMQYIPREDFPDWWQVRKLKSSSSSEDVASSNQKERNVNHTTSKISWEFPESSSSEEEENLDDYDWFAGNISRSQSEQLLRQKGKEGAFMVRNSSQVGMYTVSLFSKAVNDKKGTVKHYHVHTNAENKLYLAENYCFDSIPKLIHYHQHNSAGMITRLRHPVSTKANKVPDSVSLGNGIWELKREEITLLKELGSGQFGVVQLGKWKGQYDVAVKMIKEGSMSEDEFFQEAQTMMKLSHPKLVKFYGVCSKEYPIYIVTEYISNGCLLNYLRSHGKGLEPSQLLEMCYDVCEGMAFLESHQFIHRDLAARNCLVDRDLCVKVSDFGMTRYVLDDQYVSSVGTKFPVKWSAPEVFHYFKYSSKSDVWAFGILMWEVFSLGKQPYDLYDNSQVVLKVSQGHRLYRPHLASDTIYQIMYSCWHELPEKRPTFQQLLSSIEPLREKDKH
Chain of HER2 (P04626 23-1255): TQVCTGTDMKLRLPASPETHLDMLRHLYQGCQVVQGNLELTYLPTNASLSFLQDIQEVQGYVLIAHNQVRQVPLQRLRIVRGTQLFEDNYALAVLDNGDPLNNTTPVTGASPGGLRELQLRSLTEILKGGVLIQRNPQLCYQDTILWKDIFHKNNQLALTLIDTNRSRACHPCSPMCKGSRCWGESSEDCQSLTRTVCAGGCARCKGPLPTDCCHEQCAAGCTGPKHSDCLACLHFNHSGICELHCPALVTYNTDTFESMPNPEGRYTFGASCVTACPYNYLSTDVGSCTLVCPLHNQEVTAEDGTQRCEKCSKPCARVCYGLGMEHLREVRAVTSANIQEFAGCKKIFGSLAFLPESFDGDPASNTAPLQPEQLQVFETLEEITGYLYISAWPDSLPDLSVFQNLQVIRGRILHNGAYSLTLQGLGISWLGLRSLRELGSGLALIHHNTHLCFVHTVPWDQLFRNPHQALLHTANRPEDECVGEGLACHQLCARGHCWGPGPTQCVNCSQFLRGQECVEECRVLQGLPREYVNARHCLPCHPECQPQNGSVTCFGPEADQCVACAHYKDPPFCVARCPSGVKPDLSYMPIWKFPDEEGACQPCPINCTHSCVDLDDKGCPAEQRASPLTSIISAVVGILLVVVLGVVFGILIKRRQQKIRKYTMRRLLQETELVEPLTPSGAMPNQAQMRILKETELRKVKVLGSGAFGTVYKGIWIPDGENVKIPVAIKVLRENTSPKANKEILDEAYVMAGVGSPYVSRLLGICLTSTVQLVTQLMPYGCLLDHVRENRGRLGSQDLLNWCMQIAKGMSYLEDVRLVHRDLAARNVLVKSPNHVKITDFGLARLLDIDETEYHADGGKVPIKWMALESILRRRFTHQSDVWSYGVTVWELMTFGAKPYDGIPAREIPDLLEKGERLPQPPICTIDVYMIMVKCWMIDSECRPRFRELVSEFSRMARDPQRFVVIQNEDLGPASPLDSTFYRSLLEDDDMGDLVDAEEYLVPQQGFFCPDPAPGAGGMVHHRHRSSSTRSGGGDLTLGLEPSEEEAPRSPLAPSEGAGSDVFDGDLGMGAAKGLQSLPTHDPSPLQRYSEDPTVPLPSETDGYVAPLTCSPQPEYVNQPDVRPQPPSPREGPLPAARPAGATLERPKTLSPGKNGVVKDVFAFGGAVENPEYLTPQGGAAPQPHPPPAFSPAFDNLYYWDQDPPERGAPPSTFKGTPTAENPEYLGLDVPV
Chain of ITK (Q08881 whole entry): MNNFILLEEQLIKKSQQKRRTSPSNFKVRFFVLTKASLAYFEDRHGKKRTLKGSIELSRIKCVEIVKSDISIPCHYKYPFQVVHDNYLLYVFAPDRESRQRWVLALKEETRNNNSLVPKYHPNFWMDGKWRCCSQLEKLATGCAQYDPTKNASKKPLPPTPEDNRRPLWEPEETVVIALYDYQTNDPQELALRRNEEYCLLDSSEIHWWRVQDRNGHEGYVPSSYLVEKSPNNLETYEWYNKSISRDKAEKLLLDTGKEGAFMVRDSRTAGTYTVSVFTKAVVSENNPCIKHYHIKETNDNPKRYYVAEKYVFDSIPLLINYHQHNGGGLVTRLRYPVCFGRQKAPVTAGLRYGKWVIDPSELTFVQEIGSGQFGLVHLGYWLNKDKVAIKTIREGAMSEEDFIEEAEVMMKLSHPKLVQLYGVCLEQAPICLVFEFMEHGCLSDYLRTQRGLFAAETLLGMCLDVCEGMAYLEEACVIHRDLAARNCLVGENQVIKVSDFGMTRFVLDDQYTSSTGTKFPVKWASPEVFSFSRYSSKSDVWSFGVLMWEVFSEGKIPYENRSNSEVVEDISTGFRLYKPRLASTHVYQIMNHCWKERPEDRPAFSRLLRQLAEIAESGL
Chain of PTK6 (Q13882 whole entry): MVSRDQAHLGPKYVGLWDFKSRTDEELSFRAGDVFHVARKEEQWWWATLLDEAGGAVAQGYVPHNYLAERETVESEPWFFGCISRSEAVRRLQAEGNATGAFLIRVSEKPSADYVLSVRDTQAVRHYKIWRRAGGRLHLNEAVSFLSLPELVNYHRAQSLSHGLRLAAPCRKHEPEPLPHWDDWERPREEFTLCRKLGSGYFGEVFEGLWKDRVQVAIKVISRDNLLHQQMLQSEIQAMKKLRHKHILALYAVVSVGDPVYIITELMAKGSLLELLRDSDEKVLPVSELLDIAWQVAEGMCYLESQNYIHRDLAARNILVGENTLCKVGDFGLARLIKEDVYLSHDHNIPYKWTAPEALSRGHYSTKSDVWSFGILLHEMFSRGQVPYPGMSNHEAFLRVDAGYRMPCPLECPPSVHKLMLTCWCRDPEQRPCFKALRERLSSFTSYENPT
Chain of FGFR3 (P22607 23-806): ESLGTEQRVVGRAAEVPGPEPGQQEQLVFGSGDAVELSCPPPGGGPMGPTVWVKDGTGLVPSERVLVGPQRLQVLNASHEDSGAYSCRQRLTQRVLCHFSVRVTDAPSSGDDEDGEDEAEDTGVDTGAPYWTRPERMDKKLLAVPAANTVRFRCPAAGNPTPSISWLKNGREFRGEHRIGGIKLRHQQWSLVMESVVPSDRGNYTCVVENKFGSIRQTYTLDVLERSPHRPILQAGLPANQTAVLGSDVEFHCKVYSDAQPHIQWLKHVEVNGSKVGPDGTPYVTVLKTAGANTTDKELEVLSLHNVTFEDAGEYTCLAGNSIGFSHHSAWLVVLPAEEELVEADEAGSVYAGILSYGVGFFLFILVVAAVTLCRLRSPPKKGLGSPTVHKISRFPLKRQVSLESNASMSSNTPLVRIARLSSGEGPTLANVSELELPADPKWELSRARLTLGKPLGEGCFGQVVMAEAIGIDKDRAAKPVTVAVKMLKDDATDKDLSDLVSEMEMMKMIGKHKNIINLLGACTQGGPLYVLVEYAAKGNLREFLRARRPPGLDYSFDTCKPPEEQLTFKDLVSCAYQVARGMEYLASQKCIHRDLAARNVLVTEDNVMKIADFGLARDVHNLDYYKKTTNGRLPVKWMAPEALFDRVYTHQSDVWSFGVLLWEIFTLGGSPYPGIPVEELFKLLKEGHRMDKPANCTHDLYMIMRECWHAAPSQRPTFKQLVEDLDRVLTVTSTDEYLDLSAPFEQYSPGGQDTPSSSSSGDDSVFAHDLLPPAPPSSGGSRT
Chain of EPHA3 (P29320 21-983, species assumed): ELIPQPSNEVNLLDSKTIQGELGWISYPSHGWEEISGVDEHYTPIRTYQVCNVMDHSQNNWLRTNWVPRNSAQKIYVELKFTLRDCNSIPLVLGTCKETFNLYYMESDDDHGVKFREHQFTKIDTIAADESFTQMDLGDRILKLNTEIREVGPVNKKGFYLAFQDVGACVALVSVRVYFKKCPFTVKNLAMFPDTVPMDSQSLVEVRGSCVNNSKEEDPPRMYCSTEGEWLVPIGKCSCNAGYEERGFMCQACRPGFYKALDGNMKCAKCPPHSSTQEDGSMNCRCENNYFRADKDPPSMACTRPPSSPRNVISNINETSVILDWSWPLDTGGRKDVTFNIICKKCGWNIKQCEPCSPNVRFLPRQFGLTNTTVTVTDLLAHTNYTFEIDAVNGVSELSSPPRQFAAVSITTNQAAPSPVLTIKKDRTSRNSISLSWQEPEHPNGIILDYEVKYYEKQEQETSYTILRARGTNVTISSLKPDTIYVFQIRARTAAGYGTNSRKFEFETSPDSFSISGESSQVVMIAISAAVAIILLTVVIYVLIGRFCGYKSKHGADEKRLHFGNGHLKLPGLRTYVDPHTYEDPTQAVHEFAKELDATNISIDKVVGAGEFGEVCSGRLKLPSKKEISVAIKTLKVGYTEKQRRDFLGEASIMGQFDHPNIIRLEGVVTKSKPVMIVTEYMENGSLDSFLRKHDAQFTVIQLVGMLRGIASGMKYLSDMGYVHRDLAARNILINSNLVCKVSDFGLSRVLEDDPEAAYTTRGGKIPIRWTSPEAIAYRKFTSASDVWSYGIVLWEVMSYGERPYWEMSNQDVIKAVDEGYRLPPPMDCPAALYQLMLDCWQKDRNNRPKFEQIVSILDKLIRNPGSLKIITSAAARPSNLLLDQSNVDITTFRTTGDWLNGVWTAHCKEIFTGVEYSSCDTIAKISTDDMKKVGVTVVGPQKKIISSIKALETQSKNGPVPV

COC/C=C/C(=O)N1CC[C@@H](n2nc(-c3ccc(Oc4ccccc4)cc3)c(C(N)=O)c2N)C1 [SY-1530]
Ratio, BMX (BMX; IC50 SY-1530 over literature IC50 of ibrutinib): 9.4 | IC50 (BMX; read-out: IC50 (nM), BMX, HTRF): 7.51 nM | Inhibition (%), FGFR3 (FGFR3): 25% | Recovery of BTK activity after dilution (BTK [1]): did not recover | Inhibition (%), PTK6 (PTK6): 92% | Plasma protein binding (%) [2]: 95.6% | Inhibition (%), LCK (LCK): 94% | Inhibition (%), EPHA3 (EPHA3): −2% | Ratio = Papp BL→AP/Papp AP→BL (Caco-2; Caco-2, 0.1 μM): 2.46 | Ratio = Papp BL→AP/Papp AP→BL (Caco-2; Caco-2, 1 μM): 2.58 | Ratio = Papp BL→AP/Papp AP→BL (Caco-2; Caco-2, 10 μM): 2.92 | Inhibition (%), CSK (CSK): 84% | Inhibitory potency on tumor growth (TMD8 xenografts; 30 mg/kg BID): better inhibitory potency on tumor growth than the same dose of ibrutinib | Anti-tumor activity (TMD8 xenografts; 30 mg/kg QD): comparable to that of ibrutinib at 100 mg/kg | Inhibitory potency on tumor growth (TMD8 xenografts; 100 mg/kg QD, versus ibrutinib 100 mg/kg QD): better inhibitory potency on tumor growth than ibrutinib | Mouse bodyweight (TMD8 xenografts; BID groups): moderate decrease | Tumor growth versus vehicle treated group (TMD8 xenografts; BID, SY-1530 30 or 10 mg/kg, ibrutinib 30 mg/kg): dramatically lower | Bodyweights of mice (TMD8 xenografts; QD groups): moderately changed | Concentration in plasma (TMD8 xenografts; QD groups, 2.5 h after administration on the last day): higher than those of ibrutinib | Tumor volume (TMD8 xenografts; oral, QD, 29 days): significant decrease in tumor volumes | MTD (Rat): 2000 mg/kg | MTD (Beagle dog): 1000 mg/kg | Ratio, ITK (ITK; [4]): > 13 | IC50 (ITK; read-out: IC50 toward ITK, HTRF): > 1000 nM | BTK protein in splenocytes bound by inhibitor (BTK [3]): still bound | Ratio, HER2 (HER2; [4]): > 2500 | IC50 (HER2; read-out: IC50 (nM), HER2, HTRF): > 10000 nM
